# Source: patent publication US20070191292A1, “Antimycotic rhamnolipid compositions and related methods of use” (priority 2006, published 2007)
# Read-outs that look alike come from different tables or passages of the source. Bridge positions count the residues as written; N and C are the ends. Square brackets hold non-standard residues; d marks the D form. Peptide text beside a SMILES is read from it. * marks the point of attachment. Asp(3S-OH) = N[C@H](C(=O)O)[C@H](O)C(=O)O; Thr(4-Cl) = N[C@H](C(=O)O)[C@H](O)CCl; X1 = CCCCCCCCC[C@@H](O)CC(=O)*; dDab = NCC[C@@H](N)C(=O)O; Dab = NCC[C@H](N)C(=O)O; Dhb = C/C=C(\N)C(=O)O
# Tests used:
# Aspergillus flavus = format: cell-based; conditions: SRE alone (0.5 mg/ml solution, diluted)
# Text: (§1) The checkerboard method is used frequently to evaluate antimicrobial combinations in vitro (Lorian, V., M. D. 1996. Antibiotics in Laboratory Medicine, 4th ed.). The tests were easily performed at the laboratory level by using the microdilution method. The results obtained from this study provided a better understanding of the nature of the interaction between SRE and rhamnolipids.
# (§2) The checkerboard method is described by Sabath et al. (Sabath, L. D. 1967. Synergy of antibacterial substances by apparently known mechanisms. Antimicrob. Agents Chemother. 7:210-7.) and Garrod et al. (Garrod L. P. and P. M. Waterworth. 1962. Methods of testing combined antibiotic bactericidal action and the significance of the results. J. Clin. Pathol. 15:328-38.). A 96-well plate was used to determine the fractional inhibitory concentrations (FICs). Serial twofold dilutions of SRE and rhamnolipids were prepared separately. Then 25 μl of different concentrations of syringomycin are added in a vertical orientation and the rhamnolipids were added in horizontal orientation. The final volume of the well contained 50 μl of the subject composition and 50 μl of the tested culture. The plate was incubated at 35° C. for 24-72 h. and the FICs were calculated using the equation: (A/MICa)+(B/MICb)=FICa+FICb=FIC index, where A and B are concentrations of SRE and rhamnolipids, MICa and MICb are the minimum inhibitory concentrations, and FICa and FICb are the fractional inhibitory concentrations of SRE and rhamnolipids, respectively.
# (§3) SRE and Rh solutions were prepared, at the concentrations shown (mg/ml), then diluted and used to determine the minimum inhibitory concentration (MIC, μg/ml) of each, alone and in composition with the other (SYRA and SYRA2). […] Beneficial effects against the other organisms tested are evidenced by examination and analysis of the corresponding data.
# Botrytis sp = format: cell-based; conditions: SRE alone (0.5 mg/ml solution, diluted)
# Text: as §1, §2, §3
# Candida albicans = format: cell-based; conditions: SRE alone (0.5 mg/ml solution, diluted)
# Text: as §1, §2, §3
# Cladosporium sp = format: cell-based; conditions: SRE alone (0.5 mg/ml solution, diluted)
# Text: as §1, §2, §3
# Fusarium oxysporum = format: cell-based; conditions: SRE alone (0.5 mg/ml solution, diluted)
# Text: as §1, §2, §3
# Penicillium sp1 = format: cell-based; conditions: SRE alone (0.5 mg/ml solution, diluted)
# Text: as §1, §2, §3
# Penicillium sp2 = format: cell-based; conditions: SRE alone (0.5 mg/ml solution, diluted)
# Text: as §1, §2, §3
# Rhizoctonia solani = format: cell-based; conditions: SRE alone (0.5 mg/ml solution, diluted)
# Text: as §1, §2, §3
# Rhizopus stonifer = format: cell-based; conditions: SRE alone (0.5 mg/ml solution, diluted)
# Text: as §1, §2, §3
# Rhodotorula pilimanae = format: cell-based; conditions: SRE alone (0.5 mg/ml solution, diluted)
# Text: as §1, §2, §3
# BY4741 = format: cell-based, Saccharomyces cerevisiae
# Method: (§4) Disk diffusion methods similar to those described by the NCCLS protocols for antifungal testing (Washington, G. L. W. a. J. A. 1995. Antibacterial Susceptibility Tests: Dilution and Disk Diffusion Methods, p. 1327-1341. in P. R. Murray (ed.), Manual of Clinical Microbiology, sixth ed.) were used. FIGS. 2(A) through 2(D) illustrate typically observed result assessments for antimicrobial combinations using the disk diffusion method.
# (§5) Tested fungi, utilized in the examples that follow, were grown in RPMI Medium and adjusted to 5×10^4 CFU/ml, and transferred onto solid agar medium of the appropriate growth medium. The cultures were spread over the surface as a thin film. Four millimeter-diameter sterilized paper disks were deposited on the surface and syringomycin E and rhamnolipids were applied on disk 1 and disk 2, respectively (in approximately about 7 to about 10 μl aliquots). The distance between the disks was equal to the sum of radii of zones of inhibition of the drugs applied alone. The plates were incubated at approximately 35° C. for approximately 24-72 h.
# (§6) SYRA was obtained by mixing SRE and rhamnolipids at different relative concentrations. SYRA was tested against a variety of yeasts and fungi and the zone of inhibition was measured as described with reference to Examples 2A and 2B.
# 8A-1B = assay: Disk diffusion, zone of inhibition; format: cell-based, Saccharomyces cerevisiae
# Method: as §4, §5
# W303C = assay: Disk diffusion, zone of inhibition; format: cell-based, Saccharomyces cerevisiae
# Method: as §4, §5
# R.pilimanae = format: cell-based, Rhodotorula pilimanae
# Method: as §4, §5, §6
# [1] = tested on: Saccharomyces cerevisiae SRE resistant mutant strains Δsmr1,Δsyr2,Δipt1, Δelo2,Δelo3,Δfah1; assay: Replica plate growth inhibition, sphingolipid and sterol biosynthetic mutants; format: cell-based; conditions: parent strains 8A-1B, W303, BY4741
# Text: To investigate the mechanism of action of SYRA, Saccharomyces cerevisiae sphingolipid and sterol biosynthetic mutants were used. Saccharomyces cerevisiae parent strains 8A-1B, W303, BY4741 and SRE resistant mutant strains Δsmr1,Δsyr2,Δipt1, Δelo2,Δelo3,Δfah1 were utilized, as described previously (Stock, S. D., H. Hama, J. A. Radding, D. A. Young, and J. Y. Takemoto. 2000. Syringomycin E inhibition of Saccharomyces cerevisiae: requirement for biosynthesis of sphingolipids with very-long-chain fatty acids and mannose- and phosphoinositol-containing head groups. Antimicrob. Agents Chemother. 44:1174-80.). For growth inhibition, a replica plate method was used (Hama, J., D. A. Young, J. A. Radding, D. Ma, J. Tang, S. D. Stock, and J. Y. Takemoto. 2000. Requirement of sphingolipid alpha-hydroxylation for fungicidal action of syringomycin E. FEBS Lett. 478:26-8). Fresh cells were replica plated onto yeast extract-peptone-dextrose (YPD) agar containing different concentrations of SYRA. Growth with and without SYRA addition were compared to determine relative sensitivity.
# [2] = tested on: a variety of yeast and fungi; assay: Antifungal activities against a variety of yeast and fungi (Table 1); format: cell-based; conditions: component alone; Tables 1 and 2
# Text: as §1
# as §2, with “Then 25 μl of different concentrations of syringomycin are added in a vertical orientation and the rhamnolipids were added in horizontal orientation. The final volume of the well contained 50 μl of the subject composition and 50 μl of the tested culture.” left out, “respectively. […]” for “respectively.”
structure (smiles),measurement,setting,value
"C/C=C1\NC(=O)[C@H](Cc2ccccc2)NC(=O)[C@H](CCCNC(=N)N)NC(=O)[C@H](CCN)NC(=O)[C@@H](CCN)NC(=O)[C@@H](CO)NC(=O)[C@@H](NC(=O)C[C@H](O)CCCCCCCCC)COC(=O)[C@H]([C@H](O)CCl)NC(=O)[C@H]([C@H](O)C(=O)O)NC1=O [SRE, Syringomycin E] (X1-S[dS][dDab][Dab]RF[Dhb][Asp(3S-OH)][Thr(4-Cl)]; ester 1-C)",MIC,Aspergillus flavus,7.8 µg/mL
same,MIC,Botrytis sp,3.9 µg/mL
same,MIC,Candida albicans,3.9 µg/mL
same,MIC,Cladosporium sp,3.9 µg/mL
same,MIC,Fusarium oxysporum,7.8 µg/mL
same,MIC,Penicillium sp1,7.8 µg/mL
same,MIC,Penicillium sp2,7.8 µg/mL
same,MIC,Rhizoctonia solani,3.9 µg/mL
same,MIC,Rhizopus stonifer,7.8 µg/mL
same,MIC,Rhodotorula pilimanae,3.9 µg/mL
same,Zone of Inhibition,BY4741; SRE alone 2.4 mg/ml,19.0 mm
same,Zone of Inhibition,BY4741; SRE alone 5.6 mg/ml,21.0 mm
same,Zone of Inhibition,BY4741; SRE alone 10.3 mg/ml,23.0 mm
same,Zone of Inhibition,8A-1B; SRE alone 2.4 mg/ml,17.5 mm
same,Zone of Inhibition,8A-1B; SRE alone 5.6 mg/ml,19.0 mm
same,Zone of Inhibition,8A-1B; SRE alone 10.3 mg/ml,20.0 mm
same,Zone of Inhibition,W303C; SRE alone 2.4 mg/ml,26.0 mm
same,Zone of Inhibition,W303C; SRE alone 5.6 mg/ml,28.0 mm
same,Zone of Inhibition,W303C; SRE alone 10.3 mg/ml,29.0 mm
same,Zone of Inhibition,R.pilimanae; SRE alone 2.4 mg/ml,19.0 mm
same,Zone of Inhibition,R.pilimanae; SRE alone 5.6 mg/ml,21.5 mm
same,Zone of Inhibition,R.pilimanae; SRE alone 10.3 mg/ml,23.0 mm
same,growth inhibitory activity in mutants compared to wild type,[1],less in the mutants as compared to the wild type
same,"antifungal activities, alone",[2],strong activity
